{
  "source": "patent US20240268419A1",
  "about": "“IgA PRODUCTION PROMOTING AGENT AND FEED COMPOSITION FOR PROMOTING IgA PRODUCTION” (Nippon Beet Sugar Manufacturing Co., Ltd., priority 2022, published 2024)",
  "test_system": "IgA production in the intestinal tract",
  "experiment": "IgA concentration in feces of suckling calves fed DFAIII (ELISA)",
  "assay_type": "in vivo, Holstein calves",
  "conditions": "for IgA Concentration (mg/g feces): mean ± standard deviation",
  "source_text": "Twelve head of Holstein calves in suckling period as test subjects were divided into a control group (7 head) and a DFAIII feeding group (5 head). Colostrum was fed to the calves up to 6 days old after birth. In the DFAIII feeding group, 6 g each of difructose anhydride III (DFAIII) (manufactured by Nippon Beet Sugar Manufacturing Co., Ltd.; product name: Koushi no Mikata) was mixed with the colostrum and fed to the calves in the first and second colostrum feeding after birth (at 0 to 1 day old). From 7 days old, the 7 head of calves in suckling period in the control group were fed with a starter, which is a mixed feed for calf in suckling period (manufactured by Nippon Beet Sugar Manufacturing Co., Ltd.; product name: Start; component contents: protein 22%, total digestible nutrients 74%), and the 5 head of calves in suckling period in the DFAIII feeding group were fed with a feed (DFAIII-containing feed) in which DFAIII (manufactured by Nippon Beet Sugar Manufacturing Co., Ltd.) was added in an amount of 2.0 wt % to and mixed with the starter, by free feeding together with hay and water. The amount 2.0 wt % of DFAIII in the DFAIII-containing feed is calculated as the weight proportion (w/w %) of DFAIII relative to the total weight of the starter and DFAIII. From seven days old, 2 L of 15% milk substitute solution (without DFAIII) was further fed to the calves in suckling period twice a day.\nFresh feces were collected from the calves of each test group at 7 days old, 14 days old, 21 days old, and 28 days old. The IgA concentrations in feces were measured by the ELISA method using an IgA ELISA Quantitation Kit (manufactured by BETHYL Laboratories, Inc.). The IgA concentration in feces was expressed in a milligram amount of IgA per wet mass of the feces.",
  "data": [
    {"compound": "OC[C@H]1O[C@@]2(CO[C@]3(CO)O[C@H](CO)[C@@H](O)[C@@H]3O2)[C@@H](O)[C@@H]1O", "note": "[DFAIII, di-D-fructofuranose 1, 2:2,3′ dianhydride]", "values": [
      {"measurement": "IgA Concentration (mg/g feces)", "setting": "7 days old, Holstein calves in suckling period, 6 g DFAIII in first and second colostrum feeding", "value": "0.65 ± 0.32", "unit": "mg/g feces"},
      {"measurement": "IgA Concentration (mg/g feces)", "setting": "14 days old, 6 g DFAIII in colostrum x2, then starter with 2.0 wt % DFAIII from 7 days old, free feeding", "value": "1.19 ± 0.45", "unit": "mg/g feces"},
      {"measurement": "IgA Concentration (mg/g feces)", "setting": "21 days old, 6 g DFAIII in colostrum x2, then starter with 2.0 wt % DFAIII from 7 days old, free feeding", "value": "2.60 ± 1.01", "unit": "mg/g feces"},
      {"measurement": "IgA Concentration (mg/g feces)", "setting": "28 days old, 6 g DFAIII in colostrum x2, then starter with 2.0 wt % DFAIII from 7 days old, free feeding", "value": "1.01 ± 1.34", "unit": "mg/g feces"},
      {"measurement": "IgA concentrations in feces in comparison with the control group", "setting": "DFAIII feeding group vs control group, Holstein calves in suckling period", "value": "statistically significantly higher"}
    ]}
  ]
}
